# According to US5866597A, “Use of triazine compounds for the treatment of memory and learning disorders” (Glaxo Wellcome Inc., priority 1993, dated 1999):
# Test system: scopolamine-induced deficit in rats
# Test: Light-dark box memory test in rats, sub-acute dosing: pre-training, pre-training and pre-retest, or four pre-treatments and before training and retest (Table 5)
# Type: in vivo, Male Wistar rats
# Conditions: for Mean latency Day 5 / Mean latency Day 6: ± SEM
# Protocol: Male Wistar rats obtained from Charles River were used. They were housed under controlled conditions (temperature 21±2 deg. C., humidity approx. 50%, 12 hour light/dark cycle, food and water ad lib) for one week before use. On the day before test the rats were permanently housed in groups of six. Food and water were supplied ad lib. On the test day, animals were weighed and then dosed either 30 minutes before test (midazolam), one hour before test (compound A) or immediately after test.
# In the sub-acute dosing regimen (see `Procedure`) the rats, housed as above, received six doses of drug or vehicle by the oral route, each 24 hours apart.
# All drugs were dissolved or suspended in 0.25% (w/v) aqueous celacol, and administered orally (by gavage), i.p. or s.c. The dose volume was 5 ml/kg for all routes.
# An identical apparatus to that described in Example 1 was used, except that the smaller box measured 370 mm×260 mm×190 mm.
# This consisted of training as described for mice under section (d) of Example 1.
# The procedure was identical with that described above, except that seven groups of rats received compound A or control pre-treatment as 6 oral doses each 24 hours apart, as follows.
# Training took place 1 hour after the fifth dose i.e. on day 5. […] The usual retest was performed 24 hours later (on day 6), one hour after the sixth oral treatment.
# This was as described under section (e) of Example 1.
# The mean latency to enter the dark box±standard error of the mean was calculated from a group of 24 animals (controls in first block) or 12 animals (all other treatments). For a given treatment, figures in the columns labelled `Day 5` and `Day 6` show the mean latencies taken from the same group of animals. The difference between data obtained on the two days is illustrated by showing the % decrease, and the data compared using the Mann-Whitney U-test.
# [1] = saline + compound A 2.5 mg/kg p.o. days 1-6
# [2] = saline + compound A 10 mg/kg p.o. day 5 only
# [3] = saline + compound A 10 mg/kg p.o. days 1-6
# [4] = saline + compound A 10 mg/kg p.o. days 5 and 6
# [5] = saline + compound A 40 mg/kg p.o. day 5 only
# [6] = saline + compound A 40 mg/kg p.o. days 5 and 6
# [7] = scopolamine 0.1 mg/kg s.c. + compound A 2.5 mg/kg p.o. days 1-6
# [8] = scopolamine 0.1 mg/kg s.c. + compound A 10 mg/kg p.o. day 5 only
# [9] = scopolamine 0.1 mg/kg s.c. + compound A 10 mg/kg p.o. days 1-6
# [10] = scopolamine 0.1 mg/kg s.c. + compound A 10 mg/kg p.o. days 5 and 6
# [11] = scopolamine 0.1 mg/kg s.c. + compound A 40 mg/kg p.o. day 5 only
# [12] = scopolamine 0.1 mg/kg s.c. + compound A 40 mg/kg p.o. days 5 and 6
structure (smiles),measurement,setting,value
"Nc1nnc(-c2cccc(Cl)c2Cl)c(N)n1 [Compound A, 3,5-Diamino-6-(2,3-dichlorophenyl)-1,2,4-triazine]",Effect on scopolamine-induced deficit,compound A single dose 10 mg/kg before the learning trial,did not alter the scopolamine-induced deficit
same,"Diff. between days, %","saline + compound A 2.5 mg/kg p.o. days 1-6, p <0.01",46%
same,Mean latency Day 5,[1],35.3 ± 3.7 s
same,Mean latency Day 6,[1],19.3 ± 2.5 s
same,"Diff. between days, %","saline + compound A 10 mg/kg p.o. day 5 only, p <0.001",52%
same,Mean latency Day 5,[2],39.8 ± 3.9 s
same,Mean latency Day 6,[2],19.3 ± 2.5 s
same,"Diff. between days, %","saline + compound A 10 mg/kg p.o. days 1-6, p <0.01",44%
same,Mean latency Day 5,[3],34.3 ± 3.6 s
same,Mean latency Day 6,[3],19.1 ± 3.4 s
same,"Diff. between days, %","saline + compound A 10 mg/kg p.o. days 5 and 6, p <0.001",48%
same,Mean latency Day 5,[4],37.2 ± 3.1 s
same,Mean latency Day 6,[4],19.3 ± 2.6 s
same,"Diff. between days, %","saline + compound A 40 mg/kg p.o. day 5 only, p <0.01",45%
same,Mean latency Day 5,[5],35.2 ± 3.4 s
same,Mean latency Day 6,[5],19.3 ± 3.4 s
same,"Diff. between days, %","saline + compound A 40 mg/kg p.o. days 5 and 6, p <0.001",50%
same,Mean latency Day 5,[6],36.0 ± 3.2 s
same,Mean latency Day 6,[6],17.8 ± 2.2 s
same,"Diff. between days, %","scopolamine 0.1 mg/kg s.c. + compound A 2.5 mg/kg p.o. days 1-6, p NS",16%
same,Mean latency Day 5,[7],33.8 ± 3.0 s
same,Mean latency Day 6,[7],28.4 ± 3.4 s
same,"Diff. between days, %","scopolamine 0.1 mg/kg s.c. + compound A 10 mg/kg p.o. day 5 only, p NS",-4%
same,Mean latency Day 5,[8],34.3 ± 2.8 s
same,Mean latency Day 6,[8],15.8 ± 4.5 s
same,"Diff. between days, %","scopolamine 0.1 mg/kg s.c. + compound A 10 mg/kg p.o. days 1-6, p <0.01",41%
same,Mean latency Day 5,[9],35.4 ± 3.2 s
same,Mean latency Day 6,[9],20.8 ± 3.6 s
same,"Diff. between days, %","scopolamine 0.1 mg/kg s.c. + compound A 10 mg/kg p.o. days 5 and 6, p NS (0.1)",28%
same,Mean latency Day 5,[10],38.2 ± 4.3 s
same,Mean latency Day 6,[10],27.7 ± 3.5 s
same,"Diff. between days, %","scopolamine 0.1 mg/kg s.c. + compound A 40 mg/kg p.o. day 5 only, p printed #0.001",46%
same,Mean latency Day 5,[11],33.3 ± 2.6 s
same,Mean latency Day 6,[11],18.0 ± 2.0 s
same,"Diff. between days, %","scopolamine 0.1 mg/kg s.c. + compound A 40 mg/kg p.o. days 5 and 6, p <0.01",48%
same,Mean latency Day 5,[12],33.6 ± 3.6 s
same,Mean latency Day 6,[12],17.5 ± 2.5 s
